Test results taken from patent US20120066778A1, “CONTROL OF URIC ACID HOMEOSTASIS” (priority 2009, published 2012).

B1: mUox: intracellular variant of the urate oxidase from Aspergillus flavus codon-optimized for expression in mammalian cells (protein, UniProt Q00511 2-302, looked up)
Uricase: SAVKAARYGKDNVRVYKVHKDEKTGVQTVYEMTVCVLLEGEIETSYTKADNSVIVATDSIKNTIYITAKQNPVTPPELFGSILGTHFIEKYNHIHAAHVNIVCHRWTRMDIDGKPHPHSFIRDSEEKRNVQVDVVEGKGIDIKSSLSGLTVLKSTNSQFWGFLRDEYTTLKETWDRILSTDVDATWQWKNFSGLQEVRSHVPKFDATWATAREVTLKTFAEDNSASVQATMYKMAEQILARQQLIETVEYSLPNKHYFEIDLSWHKGLQNTGKNAEVFAPQSDPNGLIKCTVGRSSLKSKL
modifications: codon-optimized for mammalian expression
notes: intracellular variant of the urate oxidase from Aspergillus flavus codon-optimized for expression in mammalian cells

Tests used:
[1] = system: UREX sensor circuit (mUTS, hucO8); assay: Uric acid response of UREX-controlled SEAP expression in cultured human cells; assay type: cell-based; details: 5 mM uric acid added to cultures transfected with pCK9 and pCK25, 48 h
Description: (d) Functional validation of the UREX sensor circuit. 4×10^4 HeLa cells were co-transfected with the UREX expression vectors pCK9 and pCK25 (see FIG. 1a) and cultivated for 48 h in the presence or absence of 5 mM uric acid before SEAP was quantified in the cell culture supernatant.
(e-g) Urate-dependent dose-response characteristics of UREX in the presence and absence of the human urate transporter URAT1. 3×10^5 HeLa (e), HEK-293 (f) or HT-1080 cells (g) were co-transfected with the UREX sensor plasmids pCK9 and pCK25 (see FIG. 1a) and either pURAT1 (PhCMV-URAT1-pA) or the isogenic control vector pcDNA3.1. The transfected populations were cultivated in medium supplemented with different uric acid concentrations and resulting SEAP levels were profiled after 48 h.
(b) Urate-based dose-response profile of the triple-transgenic HEK-293UREX15 cell line stably engineered for UREX-controlled SEAP and constitutive URAT1 expression. 5×10^4 HEK-293UREX15 were cultivated in the presence of different urate concentrations and SEAP levels were quantified in the culture supernatant after 72 h.
(c) Reversibility of the UREX-based uric acid sensor circuit. 2×10^5 HEK-293UREX15 cells were cultivated for 10 days while alternating uric acid concentrations from 0 to 5 mM every 72 h (arrows). […]

uric acid = assay: Urate reduction in culture medium by mUox/smUox-expressing HeLaURAT1 cells; assay type: cell-based, human; details: HeLaURAT1, 0.5 mM uric acid, 72 h, constitutive or mUTS-controlled expression
Description: (a) Profiling of urate reduction mediated by constitutive or UREX-controlled expression of an intracellular (mUox) or secretion-engineered (smUox) urate oxidase variant. 2×10^5 HeLaURAT1 cells were co-transfected with either (i) pCK65 (PUREX8-smUox-pA) and isogenic control vector pcDNA3.1, (ii) pCK65 (PUREX8-smUox-pA) and pCK25 (PhEF1α-mUTS-pA), (iii) pCK67 (PUREX8-mUox-pA) and pcDNA3.1 or (iv) pCK67 (PUREX8-mUox-pA) and pCK25 (PhEF1α-mUTS-pA). The cells were cultivated for 72 h with 0.5 mM uric acid before urate levels were determined in the culture supernatant.
(b) Urate degradation profiles UREX-controlled smUox expression. […]
SEAP levels are quantified in cell culture supernatants and mouse serum using a standard p-nitrophenylphosphate-based light absorbance time course (Berger, J., Hauber, J., Hauber, R., Geiger, R. & Cullen, B. R., Gene 66, 1-10 (1988)). Uric acid levels are assessed in cell culture supernatants, murine serum or urine using the Amplex® Red uric acid/uricase assay kit (Invitrogen, Basel, Switzerland, Cat. No. A22181) according to the manufacturer's protocol. […] The addition of uricase triggers the enzymatic conversion of uric acid to allantoin, CO2 and H2O2 that reacts, in the presence of horseradish peroxidase stoichiometrically with Amplex Red reagent to generate the red-fluorescent oxidation product resorufin which can be quantified at 585 nm.

Molecule	effect on SEAP expression [1]	reduction of uric acid in the culture medium (uric acid)
O=c1[nH]c(=O)c2[nH]c(=O)[nH]c2[nH]1 [uric acid, 7,9-dihydro-3H-purine-2,6,8-trione]	derepresses SEAP expression	–
B1	–	reduces uric acid
